In patent US20150050410A1, “COMPOUNDS, COMPOSITIONS, AND METHODS FOR MODULATING SWEET TASTE” (Chromocell Corporation, priority 2013, published 2015):

Tests used:
[1] = tested on: perception of sweet taste, in an aqueous solution, in humans; assay: Inherent sweetness assessment, difference from control "sip and spit" method; assay type: in vivo; settings: no sweetener
Protocol: The taste test panelists used in the Examples 1-3 were selected using a sensory acuity screening program. Candidate taste panelists were recruited, with prescreening and personal interviews, and were assessed and for their ability to detect, recognize and differentiate basic taste attributes or mixtures thereof as part of a standardized acuity test. This included basic tastes of sweet, sour, salty, bitter and umami, as well as having the capacity to focus on specific aspects of sensory character such as ranking the various tastes perceived and identifying the basic tastes presented at threshold levels.
The aqueous sucrose solutions were prepared by adding, sucrose (by weight), to water to achieve the desired concentration.
Compounds were first prepared as a 500-fold concentrated stock solution in 100% ethanol. These concentrated stocks were then added to water to result in a final ethanol concentration of 0.2%. The control (including positive control) samples were also normalized to 0.2% ethanol. This level of ethanol was not seen to contribute any perceived sweetness.
The intrinsic effect of test compounds on the perception of sweet taste, in an aqueous solution, in humans was evaluated using a difference from control “sip and spit” method employing a verbal category scale.
In this method, panelists (n=12) evaluate one pair of samples at a time—one sample contains water plus compound (i.e. test) while the other contains water without compound (i.e. control). Panelists were instructed to first taste the un-blinded control followed by the test sample and asked to rate the size of sweetness difference between the test and control sample, using a 6 point verbal category scale:
Verbal Category Scale • No difference • Slight difference • Slight/moderate difference • Moderate difference • Moderate/large difference • Very large difference […]

[2] = tested on: perception of the sweet taste in humans; assay: Trained descriptive analysis (DA) panel, sweet attribute; assay type: in vivo; settings: for compound effects beyond the additive effect of inherent sweetness: 4% fructose and 8% sucrose; for DA Panel Average Sweetness Intensity Score (on 15 cm scale): inherent sweetness, 35 ppm compound plus solubilizing agent, 1 cm = 1% sucrose
Protocol: The effect of the test compounds on the perception of the sweet taste in an aqueous environment, in the absence or presence of carbohydrate sweeteners, was evaluated using a descriptive analysis methodology with a group of trained panelists, as follows.
Candidate panelists were recruited, with prescreening and personal interviews, and were assessed for their ability to detect, recognize and differentiate basic taste attributes or mixtures thereof as part of a standardized acuity test. These candidate panelists were also assessed for their innate ability to identify flavors, and to rank on intensity scales. Other senses such as smell and vision were also included as part of the assessment. Candidates also were screened for their ability to use the language to describe and articulate ideas.
Selected candidates proceeded to training as a group in three phases: (1) Lexicon development, (2) Concept alignment, and (3) Scaling descriptors. During lexicon development, panelists evaluated products appropriate for use in the study to generate and align on terms describing the flavor, taste, aromatic, trigeminal, and temporal attributes. During concept alignment, the panel evaluated the products mentioned above to clarify and confirm the attributes that were generated during lexicon development using reference standards that appropriately define each attribute; these are either physical references (e.g. sucrose solutions) or verbal descriptions (e.g. overall flavor). Product terms and concepts were validated during this portion of the study.
In the last phase, scaling descriptors, the panel participated in a series of exercises focused on ordering and ranking samples according to relative attribute intensity, measuring attribute intensity using a defined length of line scale. Whenever possible, different levels or concentration of references were used as anchors to facilitate use of the scale. Panelists were provided with blinded references at this stage to evaluate their understanding and perception of the scale.
The panel used in this example was trained to reference sweet attributes in an absolute manner, such that a particular concentration of sweetener is always measured by the panelists at the same point using a 15 cm line scale where each cm represents a 1% increase in sucrose to cover the range of 0% to 15% sucrose. For the rest of the attributes, the panel was trained using a hybrid approach between descriptive analysis methods (e.g. quantitative descriptive analysis, the sensory spectrum, etc.) well-known to those skilled in the art.
The trained panel was then used for a descriptive analysis assessment for Compounds 1, 2 and 3 in aqueous solutions at pH 3 and pH 7. Each of the three compounds was tested at 35 ppm in sucrose and fructose sweeteners. In addition, Compounds 1, 2 and 3 were also examined in water at pH 3 and pH 7 to assess for any inherent sweetness.
The aqueous sweetener solutions were prepared by adding, fructose or sucrose (by weight), to water to achieve the desired concentration. Aqueous sucrose solutions at pH 3 were buffered using a final concentration of 0.096% Citric Acid plus 0.036% Sodium Citrate while aqueous fructose solutions at pH 3 were buffered using a final concentration of 0.06% Citric Acid and 0.0225% Sodium Citrate.
Compounds were first prepared as a […] concentrated stock solution in 100% ethanol. These concentrated stocks were then added to the aqueous sweetener solutions to result in a final ethanol concentration of 0.2%. In addition to compounds, a solubilizing agent at a final concentration of 0.02% was added to the aqueous sweetener solutions. Control samples were also balanced with 0.2% ethanol and in certain cases 0.02% solubilizing agent.
Both control (aqueous sweetener solutions without compound) and variant (aqueous sweetener solutions with compound) samples were blinded and randomized (by sweetener and pH blocks). […]

tasters = settings: DuBois, et al., J. Med. Chem., 1981; cited from earlier work

## COc1ccc(C2CC(=O)c3c(O)cccc3O2)cc1O (racemic) [Compound 1, 5-hydroxy-2-(3-hydroxy-4-methoxyphenyl)chroman-4-one]
[1]; compound 10 ppm in water
  Correlated Inherent Sweetness Assessment: 0% sucrose
[1]; compound 15 ppm in water
  Correlated Inherent Sweetness Assessment: 0%-0.5%
[1]; compound 25 ppm in water
  Correlated Inherent Sweetness Assessment: 0%-0.5%
[2]; pH 3, 35 ppm, Table 7 vs Table 5
  compound effects beyond the additive effect of inherent sweetness: super-additive effects
[2]; pH 7, 35 ppm, Table 6 vs Table 4
  compound effects beyond the additive effect of inherent sweetness: super-additive effects
[2]; aqueous fructose and sucrose solutions at pH 3, 35 ppm, ** p<0.01
  perceived sweetness compared to control sweetener solutions (FIG. 2): significant increase in perceived sweetness
[2]; aqueous fructose and sucrose solutions at pH 7, 35 ppm, ** p<0.01
  perceived sweetness compared to control sweetener solutions (FIG. 1): significant increase in perceived sweetness
[2]; citric acid-citrate solution pH 3
  DA Panel Average Sweetness Intensity Score (on 15 cm scale): do not show further significant increase in perceived inherent sweetness
[2]; water pH 7
  DA Panel Average Sweetness Intensity Score (on 15 cm scale): further increase in perceived sweetness
tasters
  reported sweet flavor: sweet flavor
